Measurements as given in patent US12473250B2, “Molecular design of new antibiotics and antibiotic adjuvants against MCR strains” (priority 2019, dated 2025).
Read-outs that look alike come from different tables or passages of the source.

Tests used:
Type in all cases: cell-based
[1] = system: colistin resistant MCR (−) E. Cloacae strain 7023456439; test: Synergy study: colistin MIC in the presence of compound; details: strain 7023456439 E. Cloacae
Description: (§1) The MICs of the individual drugs and LC compound in combinations were determined using the broth microdilution technique as recommended by the CLSI whereby the two anti-microbial agents were added in an equal amount. (e.g.: 50 μL of Colistin: 50 μL of LC compounds). Diluted media containing compounds and antibiotics will be serially diluted 2-fold, and LC compounds and antibiotics alone or in combination will be assayed at fixed synergy concentration. In all cases, the lowest concentration at which no visible growth occurred was be recorded to be the MIC value of individual and combined antibacterial agents. The results were obtained after 24 hours of incubation.

[2] = system: colistin resistant MCR (+) E. Coli strains; test: as above
Description: as §1

[3] = system: colistin resistant MCR (−) E. Coli strains; test: as above
Description: as §1

[4] = system: colistin resistant MCR (−) E. Cloacae strain 7023456439; test: MIC, broth microdilution, compound alone; details: strain 7023456439 E. Cloacae
Description: (§2) MIC experiments of the antimicrobial agents were determined by a modified broth microdilution method in accordance with the Clinical and Laboratory Standards Institute (CLSI) guidelines using 96 well culture plates. In brief, serial dilutions of all plates were prepared at different concentrations (μg). The inoculum suspension was prepared by adding isolated colonies from a 18-20 hours on TSA plate into phosphate buffer (0.31 mM, pH 7.2) or in water for injection (BBraun) and adjusting the suspension to a turbidity equivalent to 0.5 McFarland Standard. Each well contained a final bacterial concentration of approximately 5×10^5 colony forming units (CFU)/mL. The plate was covered and incubated at 35° C. for 24 hours. […] For the microdilution plates, turbidity in wells can be measured at OD600 using TECAN infinite M200Pro. MIC was determined as […] concentration that gives a 99 percent inhibition.

[5] = system: colistin resistant MCR (+) E. Coli strains; test: MIC, broth microdilution, compound alone; details: compound alone
Description: as §2

[6] = system: colistin resistant MCR (−) E. Coli strains; test: MIC, broth microdilution, compound alone
Description: as §2

[7] = compound at 10 μg (Table 2a: 10 ug/ml)
[8] = strain 6083672926, MCR(−), compound at 10 μg (Table 2a: 10 ug/ml)
[9] = strain 7023446108, MCR(−), compound at 10 μg (Table 2a: 10 ug/ml)
[10] = strain 7033607097, MCR(−), compound at 10 μg (Table 2a: 10 ug/ml)
[11] = compound at 5 μg (Table 2a: 5 ug/ml)
[12] = strain 6083672926, MCR(−), compound at 5 μg (Table 2a: 5 ug/ml)
[13] = strain 7023446108, MCR(−), compound at 5 μg (Table 2a: 5 ug/ml)
[14] = strain 7033607097, MCR(−), compound at 5 μg (Table 2a: 5 ug/ml)

O=C(O)CN(CCN(CC(=O)O)CC(=O)O)CC(=O)O [EDTA, Ethylenediaminetetraacetic acid, reference compound]
0.39 µg/mL: Colistin MIC in the presence of the compound ([2]; strain 6103645107, MCR(+), compound at 250 ug/ml) | Colistin MIC in the presence of the compound ([2]; strain 7023436560, MCR(+), compound at 250 ug/ml) | Colistin MIC in the presence of the compound ([3]; strain 7023446108, MCR(−), compound at 250 ug/ml)
higher than 250 μg/ml: concentration at which the compound shows synergy with colistin ([2]; against mcr-1 bacteria)
>250 µg/mL: MIC ([5]; strain 6083655967, MCR (+)) | MIC ([5]; strain 6103645107, MCR (+)) | MIC ([5]; strain 6123520276, MCR (+)) | MIC ([5]; strain 7013177695, MCR (+)) | MIC ([5]; strain 7023436560, MCR (+)) | MIC ([5]; strain 7023444207, MCR (+)) | MIC ([6]; strain 6083672926, MCR (−)) | MIC ([6]; strain 7033607097, MCR (−))
3.125 µg/mL: Colistin MIC in the presence of the compound ([1]; compound at 250 ug/ml)
0.195 µg/mL: Colistin MIC in the presence of the compound ([3]; strain 7033607097, MCR(−), compound at 250 ug/ml)
> 250 µg/mL: MIC ([4]; Enterobacter cloacae, read-out: MIC) | MIC ([5]; Escherichia coli, strain 6075066346, MCR (+), read-out: MIC) | MIC ([6]; Escherichia coli, strain 7023446108, MCR (−), read-out: MIC)
0.78 µg/mL: Colistin MIC in the presence of the compound ([2]; strain 6083655967, MCR(+), compound at 250 ug/ml) | Colistin MIC in the presence of the compound ([2]; strain 6123520276, MCR(+), compound at 250 ug/ml) | Colistin MIC in the presence of the compound ([2]; strain 7013177695, MCR(+), compound at 250 ug/ml) | Colistin MIC in the presence of the compound ([3]; strain 6083672926, MCR(−), compound at 250 ug/ml)

CN(C)CCCN(CCCCOc1ccc(C2COc3c(ccc4c3C=CC(C)(C)O4)C2)c(OCCCCN(CCCN(C)C)CCCN(C)C)c1)CCCN(C)C (centres unmarked) [LC095]
>12.5 µg/mL: Colistin MIC in the presence of the compound [1, 7]
25 µg/mL: MIC ([5]; strain 6103645107, MCR (+)) | MIC ([5]; strain 7013177695, MCR (+)) | MIC ([5]; strain 7023436560, MCR (+)) | MIC ([5]; strain 7023444207, MCR (+)) | MIC ([6]; strain 6083672926, MCR (−)) | MIC ([6]; strain 7023446108, MCR (−)) | MIC ([6]; strain 7033607097, MCR (−))
>50 µg/mL: MIC [4]
50 µg/mL: MIC ([5]; strain 6075066346, MCR (+)) | MIC ([5]; strain 6083655967, MCR (+)) | MIC ([5]; strain 6123520276, MCR (+))
1.56 µg/mL: Colistin MIC in the presence of the compound ([2]; strain 6123520276, MCR(+), compound at 10 μg (Table 2a: 10 ug/ml)) | Colistin MIC in the presence of the compound ([2]; strain 7023444207, MCR(+), compound at 10 μg (Table 2a: 10 ug/ml))
3.125 µg/mL: Colistin MIC in the presence of the compound ([2]; strain 6075066346, MCR(+), compound at 10 μg (Table 2a: 10 ug/ml)) | Colistin MIC in the presence of the compound ([2]; strain 6083655967, MCR(+), compound at 10 μg (Table 2a: 10 ug/ml)) | Colistin MIC in the presence of the compound ([2]; strain 6103645107, MCR(+), compound at 10 μg (Table 2a: 10 ug/ml)) | Colistin MIC in the presence of the compound ([2]; strain 7013177695, MCR(+), compound at 10 μg (Table 2a: 10 ug/ml)) | Colistin MIC in the presence of the compound ([2]; strain 7023436560, MCR(+), compound at 10 μg (Table 2a: 10 ug/ml)) | Colistin MIC in the presence of the compound [3, 9] | Colistin MIC in the presence of the compound [3, 10]
12.5 µg/mL: Colistin MIC in the presence of the compound [3, 8]

CN(C)CCCN(C)CCCCOc1ccc(C2COc3c(ccc4c3C=CC(C)(C)O4)C2)c(OCCCCN(C)CCCN(C)C)c1 (centres unmarked) [LC096]
>25 µg/mL: Colistin MIC in the presence of the compound [1, 11] | MIC [4]
25 µg/mL: MIC ([5]; strain 6075066346, MCR (+)) | MIC ([5]; strain 6083655967, MCR (+)) | MIC ([5]; strain 6123520276, MCR (+)) | MIC ([5]; strain 7013177695, MCR (+)) | MIC ([5]; strain 7023436560, MCR (+)) | MIC ([5]; strain 7023444207, MCR (+)) | MIC ([6]; strain 7023446108, MCR (−))
12.5 µg/mL: MIC ([5]; strain 6103645107, MCR (+)) | MIC ([6]; strain 6083672926, MCR (−)) | MIC ([6]; strain 7033607097, MCR (−))
<0.195 µg/mL: Colistin MIC in the presence of the compound ([2]; strain 6075066346, MCR(+), compound at 5 μg (Table 2a: 5 ug/ml)) | Colistin MIC in the presence of the compound ([2]; strain 6083655967, MCR(+), compound at 5 μg (Table 2a: 5 ug/ml)) | Colistin MIC in the presence of the compound ([2]; strain 6103645107, MCR(+), compound at 5 μg (Table 2a: 5 ug/ml)) | Colistin MIC in the presence of the compound ([2]; strain 6123520276, MCR(+), compound at 5 μg (Table 2a: 5 ug/ml)) | Colistin MIC in the presence of the compound ([2]; strain 7013177695, MCR(+), compound at 5 μg (Table 2a: 5 ug/ml)) | Colistin MIC in the presence of the compound ([2]; strain 7023436560, MCR(+), compound at 5 μg (Table 2a: 5 ug/ml)) | Colistin MIC in the presence of the compound ([2]; strain 7023444207, MCR(+), compound at 5 μg (Table 2a: 5 ug/ml)) | Colistin MIC in the presence of the compound [3, 12] | Colistin MIC in the presence of the compound [3, 13] | Colistin MIC in the presence of the compound [3, 14]

CC[N+](CC)(CC)CCCCOc1ccc(/C=C/C(=O)c2ccc(OCCCC[N+](CC)(CC)CC)c(CC=C(C)C)c2O)cc1 [LC315]
<0.0975 µg/mL: Colistin MIC in the presence of the compound [3, 12] | Colistin MIC in the presence of the compound [3, 13] | Colistin MIC in the presence of the compound [3, 14]
25 µg/mL: MIC ([6]; strain 6083672926, MCR (−))
12.5 µg/mL: MIC ([5]; strain 6123520276, MCR (+)) | MIC ([5]; strain 7013177695, MCR (+)) | MIC ([5]; strain 7023444207, MCR (+)) | MIC ([6]; strain 7023446108, MCR (−)) | MIC ([6]; strain 7033607097, MCR (−))
>12.5 µg/mL: Colistin MIC in the presence of the compound [1, 11]
>50 µg/mL: MIC [4]
6.25 µg/mL: MIC ([5]; strain 6075066346, MCR (+)) | MIC ([5]; strain 6083655967, MCR (+)) | MIC ([5]; strain 6103645107, MCR (+)) | MIC ([5]; strain 7023436560, MCR (+))

CC[N+](CC)(CC)CCCCOc1ccc(C2COc3c(ccc4c3C=CC(C)(C)O4)C2)c(OCCCC[N+](CC)(CC)CC)c1 (centres unmarked) [LC317]
>12.5 µg/mL: Colistin MIC in the presence of the compound [1, 7]
>50 µg/mL: MIC [4] | MIC ([5]; strain 6123520276, MCR (+)) | MIC ([6]; strain 6083672926, MCR (−)) | MIC ([6]; strain 7033607097, MCR (−))
1.56 µg/mL: Colistin MIC in the presence of the compound [3, 8] | Colistin MIC in the presence of the compound [3, 9] | Colistin MIC in the presence of the compound [3, 10]
50 µg/mL: MIC ([5]; strain 6075066346, MCR (+)) | MIC ([5]; strain 6083655967, MCR (+)) | MIC ([5]; strain 6103645107, MCR (+)) | MIC ([5]; strain 7013177695, MCR (+)) | MIC ([5]; strain 7023436560, MCR (+)) | MIC ([5]; strain 7023444207, MCR (+)) | MIC ([6]; strain 7023446108, MCR (−))

Cc1cc(OCCCCN(Cc2ccccn2)Cc2ccccn2)cc(OCCCCN(Cc2ccccn2)Cc2ccccn2)c1.[Cl][Zn][Cl].[Cl][Zn][Cl] [Orc-DPA-Zn]
>50 µg/mL: MIC [4] | MIC ([5]; strain 6103645107, MCR (+))
50 µg/mL: MIC ([5]; strain 6075066346, MCR (+)) | MIC ([5]; strain 6083655967, MCR (+)) | MIC ([5]; strain 6123520276, MCR (+)) | MIC ([5]; strain 7013177695, MCR (+)) | MIC ([5]; strain 7023436560, MCR (+)) | MIC ([5]; strain 7023444207, MCR (+)) | MIC ([6]; strain 6083672926, MCR (−)) | MIC ([6]; strain 7023446108, MCR (−)) | MIC ([6]; strain 7033607097, MCR (−))
<0.195 µg/mL: Colistin MIC in the presence of the compound ([1]; compound at 50 ug/ml) | Colistin MIC in the presence of the compound ([3]; strain 6083672926, MCR(−), compound at 50 ug/ml) | Colistin MIC in the presence of the compound ([3]; strain 7023446108, MCR(−), compound at 50 ug/ml) | Colistin MIC in the presence of the compound ([3]; strain 7033607097, MCR(−), compound at 50 ug/ml)
